In patent publication US20210122730A1, “GLUCOCORTICOID RECEPTOR MODULATORS” (ORIC Pharmaceuticals, Inc., priority 2017, published 2021):

Target: T1, GR (Homo sapiens, UniProt P04150)
T1 construct: expressed in transfected cells; host or cells: CHO-K1
T1 sequence (P04150 1-777): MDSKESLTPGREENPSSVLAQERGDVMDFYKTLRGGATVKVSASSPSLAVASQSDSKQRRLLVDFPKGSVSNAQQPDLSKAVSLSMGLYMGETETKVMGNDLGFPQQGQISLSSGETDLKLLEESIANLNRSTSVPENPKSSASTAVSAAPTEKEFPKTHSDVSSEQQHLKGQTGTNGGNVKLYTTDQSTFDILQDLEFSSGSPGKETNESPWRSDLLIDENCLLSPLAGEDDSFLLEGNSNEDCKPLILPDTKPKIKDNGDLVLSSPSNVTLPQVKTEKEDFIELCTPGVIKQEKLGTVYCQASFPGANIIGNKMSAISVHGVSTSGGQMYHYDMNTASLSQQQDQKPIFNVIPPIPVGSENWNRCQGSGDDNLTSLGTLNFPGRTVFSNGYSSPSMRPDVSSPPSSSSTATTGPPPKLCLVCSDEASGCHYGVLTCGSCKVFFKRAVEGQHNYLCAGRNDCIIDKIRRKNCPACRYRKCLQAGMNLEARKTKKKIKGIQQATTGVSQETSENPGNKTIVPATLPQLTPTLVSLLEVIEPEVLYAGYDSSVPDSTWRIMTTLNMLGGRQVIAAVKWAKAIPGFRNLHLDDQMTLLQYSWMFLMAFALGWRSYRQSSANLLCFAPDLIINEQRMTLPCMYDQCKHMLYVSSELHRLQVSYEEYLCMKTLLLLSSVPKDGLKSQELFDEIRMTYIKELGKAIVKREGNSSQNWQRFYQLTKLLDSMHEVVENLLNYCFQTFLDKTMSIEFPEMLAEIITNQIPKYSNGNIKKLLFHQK
Test: In Vitro GR Luciferase Reporter Assay (antagonist mode, CHO-K1-GR-MMTV-Luc reporter cells)
Type: cell-based
Details: antagonist mode, 10 nM Dexamethasone
Summary of the method: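 Antagonist mode: compounds (8 serial 1:5 dilutions) added to GR-MMTV-luciferase CHO-K1 reporter cells co-exposed to 10 nM dexamethasone final, in phenol red-free DMEM plus 10% CSS. After roughly 18-24 h at 37° C, OneGlo luminescence read and IC50 calculated.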

O=C(c1nccs1)[C@]12Cc3cnn(-c4ccc(F)cc4)c3C=C1CC[C@H](N(C1CC1)S(=O)(=O)c1ccc(F)cc1)C2 [Example 159, N-cyclopropyl-4-fluoro-N-((4aS,6S)-1-(4-fluorophenyl)-4a-(thiazole-2-carbonyl)-4,4a,5,6,7,8-hexahydro-1H-benzo[f]indazol-6-yl)benzenesulfonamide]
IC50: ≤ 100 nM

CN([C@H]1CCC2=Cc3c(cnn3-c3ccc(F)cc3)C[C@]2(C(=O)c2nccs2)C1)S(=O)(=O)c1cnn(C)n1 [Example 161, N-((4aS,6S)-1-(4-fluorophenyl)-4a-(thiazole-2-carbonyl)-4,4a,5,6,7,8-hexahydro-1H-benzo[f]indazol-6-yl)-N,2-dimethyl-2H-1,2,3-triazole-4-sulfonamide]
IC50: ≤ 100 nM

CN([C@H]1CCC2=Cc3c(cnn3-c3ccc(F)cc3)C[C@]2(C(=O)c2nccs2)C1)S(=O)(=O)c1cnn(C2CC2)n1 [Example 162, 2-cyclopropyl-N-((4aS,6S)-1-(4-fluorophenyl)-4a-(thiazole-2-carbonyl)-4,4a,5,6,7,8-hexahydro-1H-benzo[f]indazol-6-yl)-N-methyl-2H-1,2,3-triazole-4-sulfonamide]
IC50: ≤ 100 nM

CN([C@H]1CCC2=Cc3c(cnn3-c3ccc(F)cc3)C[C@]2(C(=O)c2cc(C(F)(F)F)ccn2)C1)S(=O)(=O)c1cn(C)cn1 [Example 163, N-((4aS,6S)-1-(4-fluorophenyl)-4a-(4-(trifluoromethyl)picolinoyl)-4,4a,5,6,7,8-hexahydro-1H-benzo[f]indazol-6-yl)-N,1-dimethyl-1H-imidazole-4-sulfonamide]
IC50: ≤ 100 nM

CCN([C@H]1CCC2=Cc3c(cnn3-c3ccc(F)cc3)C[C@]2(C(=O)c2nccs2)C1)S(=O)(=O)c1cnn(C(F)F)c1 [Example 165, 1-(difluoromethyl)-N-ethyl-N-((4aS,6S)-1-(4-fluorophenyl)-4a-(thiazole-2-carbonyl)-4,4a,5,6,7,8-hexahydro-1H-benzo[f]indazol-6-yl)-1H-pyrazole-4-sulfonamide]
IC50: ≤ 100 nM

CCN([C@H]1CCC2=Cc3c(cnn3-c3ccc(F)cc3)C[C@]2(C(=O)c2nccs2)C1)S(=O)(=O)c1ccn(C)n1 [Example 167, N-ethyl-N-((4aS,6S)-1-(4-fluorophenyl)-4a-(thiazole-2-carbonyl)-4,4a,5,6,7,8-hexahydro-1H-benzo[f]indazol-6-yl)-1-methyl-1H-pyrazole-3-sulfonamide]
IC50: ≤ 100 nM

Cn1cc(S(=O)(=O)N(C2CC2)[C@H]2CCC3=Cc4c(cnn4-c4ccc(F)cc4)C[C@]3(C(=O)c3nccs3)C2)cn1 [Example 168, N-cyclopropyl-N-((4aS,6S)-1-(4-fluorophenyl)-4a-(thiazole-2-carbonyl)-4,4a,5,6,7,8-hexahydro-1H-benzo[f]indazol-6-yl)-1-methyl-1H-pyrazole-4-sulfonamide]
IC50: ≤ 100 nM

CN([C@H]1CCC2=Cc3c(cnn3-c3ccc(F)cc3)C[C@]2(C(=O)c2cc(C(F)(F)F)ccn2)C1)S(=O)(=O)c1cnnn1C [Example 169, N-((4aS,6S)-1-(4-fluorophenyl)-4a-(4-(trifluoromethyl)picolinoyl)-4,4a,5,6,7,8-hexahydro-1H-benzo[f]indazol-6-yl)-N,1-dimethyl-1H-1,2,3-triazole-5-sulfonamide]
IC50: ≤ 100 nM

Cn1cc(S(=O)(=O)N(C2CC2)[C@H]2CCC3=Cc4c(cnn4-c4ccc(F)cc4)C[C@]3(C(=O)c3ncc(C4CC4)s3)C2)cn1 [Example 171, N-cyclopropyl-N-((4aS,6S)-4a-(5-cyclopropylthiazole-2-carbonyl)-1-(4-fluorophenyl)-4,4a,5,6,7,8-hexahydro-1H-benzo[f]indazol-6-yl)-1-methyl-1H-pyrazole-4-sulfonamide]
IC50: ≤ 100 nM

Cn1ccc(S(=O)(=O)N(CC2CC2)[C@H]2CCC3=Cc4c(cnn4-c4ccc(F)cc4)C[C@]3(C(=O)c3nccs3)C2)n1 [Example 172, N-(cyclopropylmethyl)-N-((4aS,6S)-1-(4-fluorophenyl)-4a-(thiazole-2-carbonyl)-4,4a,5,6,7,8-hexahydro-1H-benzo[f]indazol-6-yl)-1-methyl-1H-pyrazole-3-sulfonamide]
IC50: ≤ 100 nM

Cn1ncc(S(=O)(=O)N(C2CC2)[C@H]2CCC3=Cc4c(cnn4-c4ccc(F)cc4)C[C@]3(C(=O)c3nccs3)C2)n1 [Example 173, N-cyclopropyl-N-((4aS,6S)-1-(4-fluorophenyl)-4a-(thiazole-2-carbonyl)-4,4a,5,6,7,8-hexahydro-1H-benzo[f]indazol-6-yl)-2-methyl-2H-1,2,3-triazole-4-sulfonamide]
IC50: ≤ 100 nM

Cn1ncc(S(=O)(=O)N(C2CC2)[C@H]2CCC3=Cc4c(cnn4-c4ccc(F)cc4)C[C@]3(C(=O)c3ncc(C4CC4)s3)C2)n1 [Example 174, N-cyclopropyl-N-((4aS,6S)-4a-(5-cyclopropylthiazole-2-carbonyl)-1-(4-fluorophenyl)-4,4a,5,6,7,8-hexahydro-1H-benzo[f]indazol-6-yl)-2-methyl-2H-1,2,3-triazole-4-sulfonamide]
IC50: ≤ 100 nM

CCN([C@H]1CCC2=Cc3c(cnn3-c3ccc(F)cc3)C[C@]2(C(=O)c2ncc(C3CC3)s2)C1)S(=O)(=O)c1ccn(C)n1 [Example 175, N-((4aS,6S)-4a-(5-cyclopropylthiazole-2-carbonyl)-1-(4-fluorophenyl)-4,4a,5,6,7,8-hexahydro-1H-benzo[f]indazol-6-yl)-N-ethyl-1-methyl-1H-pyrazole-3-sulfonamide]
IC50: ≤ 100 nM

O=C(c1ncc(C(F)(F)F)s1)[C@]12Cc3cnn(-c4ccc(F)cc4)c3C=C1CC[C@H](N(C1CC1)S(=O)(=O)c1cnn(C(F)F)c1)C2 [Example 180, N-cyclopropyl-1-(difluoromethyl)-N-((4aS,6S)-1-(4-fluorophenyl)-4a-(5-(trifluoromethyl)thiazole-2-carbonyl)-4,4a,5,6,7,8-hexahydro-1H-benzo[f]indazol-6-yl)-1H-pyrazole-4-sulfonamide]
IC50: ≤ 100 nM

Cn1cc(S(=O)(=O)N(CC2CC2)[C@H]2CCC3=Cc4c(cnn4-c4ccc(F)cc4)C[C@]3(C(=O)c3ncc(C(F)(F)F)s3)C2)cn1 [Example 181, N-(cyclopropylmethyl)-N-((4aS,6S)-1-(4-fluorophenyl)-4a-(5-(trifluoromethyl)thiazole-2-carbonyl)-4,4a,5,6,7,8-hexahydro-1H-benzo[f]indazol-6-yl)-1-methyl-1H-pyrazole-4-sulfonamide]
IC50: ≤ 100 nM

CC(C)N([C@H]1CCC2=Cc3c(cnn3-c3ccc(F)cc3)C[C@]2(C(=O)c2ncc(C3CC3)s2)C1)S(=O)(=O)c1ccn(C)n1 [Example 185, N-((4aS,6S)-4a-(5-cyclopropylthiazole-2-carbonyl)-1-(4-fluorophenyl)-4,4a,5,6,7,8-hexahydro-1H-benzo[f]indazol-6-yl)-N-isopropyl-1-methyl-1H-pyrazole-3-sulfonamide]
IC50: ≤ 100 nM

Cn1ccc(S(=O)(=O)N(CC2CC2)[C@H]2CCC3=Cc4c(cnn4-c4ccc(F)cc4)C[C@]3(C(=O)c3ncc(C4CC4)s3)C2)n1 [Example 187, N-(cyclopropylmethyl)-N-((4aS,6S)-4a-(5-cyclopropylthiazole-2-carbonyl)-1-(4-fluorophenyl)-4,4a,5,6,7,8-hexahydro-1H-benzo[f]indazol-6-yl)-1-methyl-1H-pyrazole-3-sulfonamide]
IC50: ≤ 100 nM
